PubChem BioAssay (NCI)
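Compound exposure: 48 hours, 5 concentrations, 96-well plates. TGI: concentration producing complete growth inhibition.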

Columns and labels:
Assay in all cases: inhibition of tumour cell growth, NCI panel, 48 h
[1] = tested on: 786-0 renal
[2] = tested on: A498 renal
[3] = tested on: A549 NSCLC
[4] = tested on: ACHN renal
[5] = tested on: BT-549 breast
[6] = tested on: CAKI-1 renal
[7] = tested on: CCRF-CEM leukemia
[8] = tested on: COLO 205 colon
[9] = tested on: DU-145 prostate
[10] = tested on: EKVX NSCLC
[11] = tested on: HCC-2998 colon
[12] = tested on: HCT-116 colon
[13] = tested on: HCT-15 colon
[14] = tested on: HL-60(TB) leukemia
[15] = tested on: HOP-62 NSCLC
[16] = tested on: HOP-92 NSCLC
[17] = tested on: HS 578T breast
[18] = tested on: HT29 colon
[19] = tested on: IGROV1 ovarian
[20] = tested on: K-562 leukemia
[21] = tested on: KM12 colon
[22] = tested on: LOX IMVI melanoma
[23] = tested on: M14 melanoma
[24] = tested on: MALME-3M melanoma
[25] = tested on: MCF7 breast
[26] = tested on: MDA-MB-231 breast
[27] = tested on: MDA-MB-435
[28] = tested on: MDA-N
[29] = tested on: MOLT-4 leukemia
[30] = tested on: NCI-H226 lung
[31] = tested on: NCI-H23 lung
[32] = tested on: NCI-H460 lung
[33] = tested on: NCI-H522 lung
[34] = tested on: NCI/ADR-RES ovarian
[35] = tested on: OVCAR-3 ovarian
[36] = tested on: OVCAR-4 ovarian
[37] = tested on: OVCAR-5 ovarian
[38] = tested on: OVCAR-8 ovarian
[39] = tested on: PC-3 prostate
[40] = tested on: RPMI-8226 leukemia
[41] = tested on: RXF 393 renal
[42] = tested on: SF-268 CNS
[43] = tested on: SF-295 CNS
[44] = tested on: SF-539 CNS
[45] = tested on: SK-MEL-2 melanoma
[46] = tested on: SK-MEL-28 melanoma
[47] = tested on: SK-MEL-5 melanoma
[48] = tested on: SK-OV-3 ovarian
[49] = tested on: SN12C renal
[50] = tested on: SNB-19 CNS
[51] = tested on: SNB-75 CNS
[52] = tested on: SR leukemia
[53] = tested on: SW-620 colon
[54] = tested on: T-47D breast
[55] = tested on: TK-10 renal
[56] = tested on: UACC-257 melanoma
[57] = tested on: UACC-62 melanoma
[58] = tested on: UO-31 renal
[59] = tested on: U251 CNS
[60] = tested on: DMS 114 small cell lung
[61] = tested on: DMS 273 small cell lung
[62] = tested on: KM20L2 colon
[63] = tested on: LXFL 529 NSCLC
[64] = tested on: M19-MEL melanoma
[65] = tested on: XF 498 CNS

Q: For `CCC(=O)Nc1cccc(N=Cc2ccc(OC(=O)/C=C\c3ccccc3)cc2)c1`, which TGI [1] is on record?
A: > 75 µM

Q: What about the TGI [2] of the same compound?
A: > 75 µM

Q: And the TGI [3]?
A: > 75 µM

Q: What about the TGI [4] of the same compound?
A: > 75 µM

Q: What about the TGI [5] of the same compound?
A: > 75 µM

Q: What about the TGI [6] of the same compound?
A: > 75 µM

Q: What about the TGI [7] of the same compound?
A: > 75 µM

Q: And the TGI [8]?
A: > 75 µM

Q: What about the TGI [9] of the same compound?
A: > 75 µM

Q: And the TGI [10]?
A: > 75 µM

Q: And the TGI [11]?
A: > 75 µM

Q: And the TGI [12]?
A: > 75 µM

Q: And the TGI [13]?
A: > 75 µM

Q: What about the TGI [14] of the same compound?
A: > 75 µM

Q: What about the TGI [15] of the same compound?
A: > 75 µM

Q: What about the TGI [16] of the same compound?
A: > 75 µM

Q: What about the TGI [17] of the same compound?
A: > 75 µM

Q: And the TGI [18]?
A: > 75 µM

Q: What about the TGI [19] of the same compound?
A: > 75 µM

Q: What about the TGI [20] of the same compound?
A: > 75 µM

Q: What about the TGI [21] of the same compound?
A: > 75 µM

Q: And the TGI [22]?
A: > 75 µM

Q: And the TGI [23]?
A: > 75000 nM

Q: And the TGI [24]?
A: > 75 µM

Q: What about the TGI [25] of the same compound?
A: > 75 µM

Q: What about the TGI [26] of the same compound?
A: > 75 µM

Q: What about the TGI [27] of the same compound?
A: > 75 µM

Q: And the TGI [28]?
A: > 75 µM

Q: And the TGI [29]?
A: > 75 µM

Q: And the TGI [30]?
A: > 75 µM

Q: What about the TGI [31] of the same compound?
A: > 75 µM

Q: And the TGI [32]?
A: > 75 µM

Q: What about the TGI [33] of the same compound?
A: > 75 µM

Q: What about the TGI [34] of the same compound?
A: > 75 µM

Q: What about the TGI [35] of the same compound?
A: > 75 µM

Q: What about the TGI [36] of the same compound?
A: > 75 µM

Q: And the TGI [37]?
A: > 75 µM

Q: What about the TGI [38] of the same compound?
A: > 75 µM

Q: What about the TGI [39] of the same compound?
A: > 75 µM

Q: And the TGI [40]?
A: > 75 µM

Q: And the TGI [41]?
A: 48.1 µM

Q: And the TGI [42]?
A: > 75 µM

Q: What about the TGI [43] of the same compound?
A: > 75 µM

Q: What about the TGI [44] of the same compound?
A: > 75 µM

Q: And the TGI [45]?
A: > 75 µM

Q: And the TGI [46]?
A: > 75 µM

Q: And the TGI [47]?
A: > 75000 nM

Q: And the TGI [48]?
A: > 75 µM

Q: What about the TGI [49] of the same compound?
A: > 75 µM

Q: And the TGI [50]?
A: > 75 µM

Q: What about the TGI [51] of the same compound?
A: > 75 µM

Q: What about the TGI [52] of the same compound?
A: > 75 µM

Q: What about the TGI [53] of the same compound?
A: > 75 µM

Q: What about the TGI [54] of the same compound?
A: 37.7 µM

Q: What about the TGI [55] of the same compound?
A: > 75 µM

Q: What about the TGI [56] of the same compound?
A: > 75 µM

Q: And the TGI [57]?
A: > 75 µM

Q: And the TGI [58]?
A: > 75 µM

Q: What does the source list for `C[C@@]1(CCCCCCCCCCc2ccccc2)C[C@@]2(C)OC(=O)C[C@H]2OO1`?
A: TGI [1]: 32.9 µM; TGI [2]: 40.8 µM; TGI [3]: > 84.6 µM; TGI [4]: 4.88 µM; TGI [5]: 0.979 µM; TGI [6]: > 84.1 µM; TGI [7]: 3.34 µM; TGI [8]: 3.37 µM; TGI [9]: > 4.64 µM; TGI [10]: 7.2 µM; TGI [11]: 3.41 µM; TGI [12]: 32.5 µM; TGI [13]: 44.3 µM; TGI [14]: 35.8 µM; TGI [15]: 35.3 µM; TGI [16]: 2.16 µM; TGI [17]: 7.13 µM; TGI [18]: 31.5 µM; TGI [19]: 53.3 µM; TGI [20]: 13.6 µM; TGI [21]: 38.6 µM; TGI [22]: 34.6 µM; TGI [23]: 2980 nM; TGI [24]: 3 µM; TGI [25]: 35 µM; TGI [26]: 36.4 µM; TGI [27]: 3.4 µM; TGI [28]: 3.96 µM; TGI [29]: 2.88 µM; TGI [30]: 10.9 µM; TGI [31]: 2.9 µM; TGI [32]: 5.06 µM; TGI [33]: 4.12 µM; TGI [34]: 55.8 µM; TGI [35]: 34.6 µM; TGI [36]: 5.03 µM; TGI [37]: 3.94 µM; TGI [38]: 31.7 µM; TGI [39]: 4.41 µM; TGI [40]: 5.36 µM; TGI [41]: 54.3 µM; TGI [42]: 7.95 µM; TGI [43]: 4.97 µM; TGI [44]: 2.58 µM; TGI [45]: 45 µM; TGI [46]: 4.2 µM; TGI [47]: 2260 nM; TGI [48]: 73.3 µM; TGI [49]: 10.4 µM; TGI [50]: 5.24 µM; TGI [51]: 6.79 µM; TGI [52]: 2.97 µM; TGI [53]: 40.7 µM; TGI [54]: 7.32 µM; TGI [55]: 7.28 µM; TGI [59]: 33.1 µM; TGI [56]: 4.55 µM; TGI [57]: 4.35 µM; TGI [58]: 49.9 µM

Q: What does the source list for `CCCCCCCCCCNCCSSCc1ccc(Cl)cc1`?
A: TGI [1]: 24.2 µM; TGI [2]: 28.4 µM; TGI [3]: 3.59 µM; TGI [4]: 18.5 µM; TGI [6]: 7.15 µM; TGI [7]: 4.87 µM; TGI [8]: 5.95 µM; TGI [60]: 3.23 µM; TGI [61]: 2990 nM; TGI [10]: 5.14 µM; TGI [12]: 3.14 µM; TGI [13]: 6.54 µM; TGI [18]: 3.74 µM; TGI [19]: 7.62 µM; TGI [20]: 5.27 µM; TGI [62]: 3.07 µM; TGI [63]: 2900 nM; TGI [23]: 1170 nM; TGI [64]: 3.58 µM; TGI [24]: 7.69 µM; TGI [29]: 3.08 µM; TGI [33]: 3.18 µM; TGI [36]: 3.09 µM; TGI [37]: 3.72 µM; TGI [38]: 3.8 µM; TGI [41]: 11.6 µM; TGI [43]: 4.79 µM; TGI [44]: 3.64 µM; TGI [47]: 1880 nM; TGI [48]: 8.22 µM; TGI [49]: 3.86 µM; TGI [51]: 20.6 µM; TGI [53]: 3.02 µM; TGI [55]: 4.04 µM; TGI [59]: 10.2 µM; TGI [56]: 2.31 µM; TGI [58]: 4.84 µM; TGI [65]: 5.22 µM

Q: Which results are given for `ClCCCSSCCCCl`?
A: TGI [1]: > 100 µM; TGI [2]: > 100 µM; TGI [3]: > 100 µM; TGI [4]: > 100 µM; TGI [5]: 57.9 µM; TGI [6]: > 100 µM; TGI [7]: > 43.9 µM; TGI [8]: > 72.5 µM; TGI [9]: > 100 µM; TGI [10]: > 100 µM; TGI [11]: > 88.2 µM; TGI [12]: > 90.8 µM; TGI [13]: 57.7 µM; TGI [14]: 16 µM; TGI [15]: > 100 µM; TGI [16]: > 72.8 µM; TGI [17]: 64.9 µM; TGI [18]: > 69.1 µM; TGI [19]: > 100 µM; TGI [20]: > 100 µM; TGI [21]: > 95.1 µM; TGI [22]: > 81.9 µM; TGI [23]: > 100000 nM; TGI [24]: > 100 µM; TGI [25]: 97.6 µM; TGI [26]: > 80.2 µM; TGI [27]: > 60.5 µM; TGI [28]: 49.7 µM; TGI [29]: 7.42 µM; TGI [30]: > 100 µM; TGI [31]: > 100 µM; TGI [32]: > 100 µM; TGI [33]: 65.6 µM; TGI [34]: > 78 µM; TGI [35]: 97.1 µM; TGI [36]: > 90.7 µM; TGI [37]: > 100 µM; TGI [38]: > 75.8 µM; TGI [39]: 85.5 µM; TGI [40]: > 100 µM; TGI [41]: > 100 µM; TGI [42]: > 100 µM; TGI [43]: > 100 µM; TGI [44]: 48.8 µM; TGI [45]: > 100 µM; TGI [46]: > 100 µM; TGI [47]: > 100000 nM; TGI [48]: > 100 µM; TGI [49]: > 95.1 µM; TGI [50]: > 100 µM; TGI [51]: > 100 µM; TGI [52]: > 25.8 µM; TGI [53]: > 100 µM; TGI [54]: > 100 µM; TGI [55]: > 100 µM; TGI [59]: > 100 µM; TGI [56]: > 100 µM; TGI [57]: > 100 µM; TGI [58]: > 100 µM
